Test: Human HepG2 cell viability assay in 384 well format
Type: toxicity, cell-based
Design: dose 125 nL, time 70.5 hour; cytotoxicity at 70.5 h: concentration not given beside the values
Details: HepG2 cells, read-out: Inhibition

Going from `CC(CCn1cccn1)N1CCC(n2cc(C(C)(C)N)nn2)CC1` (stereo unspecified) to `Cc1nn(C)c(C)c1CCC(=O)N1CCCC1Cn1cccn1` (stereo unspecified), the cytotoxicity at 70.5 h falls from 1.2% to -2.38%.

First: Cc1nc[nH]c1CNC1CC(=O)N(CCc2cccc(Cl)c2)C1 (stereo unspecified)
Second: CN1CC(C(=O)NCc2cccnc2OCc2ccccc2)CC1=O (stereo unspecified)
The cytotoxicity at 70.5 h of the first is higher: -2.03% for the first, -4.14% for the second.

Compared with `Cc1nc2ccccn2c1CN1C[C@@H](CN(C)CCO)[C@@H](CO)C1`, `CN(C)C[C@@H]1CN(C2CCN(c3ccc(Cl)cc3)CC2)C[C@@H]1CO` is lower in cytotoxicity at 70.5 h: 5.92% for the first, -10.6% for the second.

First: O=C(CCNC(=O)c1ccccc1)Nc1ccncc1
Second: O=C(CCCOc1ccccc1F)Nc1cc[nH]n1
The cytotoxicity at 70.5 h of the first is lower: -18% for the first, -6.95% for the second.

Going from `Cc1ccc(CCCC(=O)N2CC(=O)Nc3cccnc32)s1` to `Cc1n[nH]c(C)c1CCC(=O)NCC1COc2ccccc2C1` (stereo unspecified), the cytotoxicity at 70.5 h rises from -11.1% to -2.08%.

Compared with `Cc1nnc2n1CCN(CC(=O)Nc1cc(C(C)C)no1)C2`, `Cc1cc(NC(=O)CCN2CCn3c(C)nnc3C2)no1` is lower in cytotoxicity at 70.5 h: -8.51% for the first, -8.82% for the second.

Going from `NC(=O)CN1CC2(CCC1=O)CCN(C(=O)c1ccccc1F)CC2` to `O=C(c1ccno1)N1CCC2(CC1)C(=O)Nc1ccccc12`, the cytotoxicity at 70.5 h falls from 33.9% to -6.37%.

Going from `CCCc1noc(CN2CCCC2c2c(C)nn(C)c2OC)n1` (stereo unspecified) to `Cc1nn(C)c2nc(N(Cc3ccccn3)CC3CCCO3)sc12` (stereo unspecified), the cytotoxicity at 70.5 h rises from -7.09% to 17.1%.

Going from `Cc1ccccc1CC(=O)NCc1cnc(CC2CCN(C)CC2)cn1` to `CCN1CCN(c2ccc(CNC(=O)c3sccc3C)cn2)CC1`, the cytotoxicity at 70.5 h falls from -4.57% to -9.08%.

Going from `O=C(c1ccco1)N1CCO[C@@H]2CN(c3ncc(F)cn3)CC[C@@H]2C1` to `Cc1nccn1C1CCCN(C(=O)c2cccc3c2OCO3)C1` (stereo unspecified), the cytotoxicity at 70.5 h falls from -5.01% to -9.12%.

Compared with `COCc1ncc(CN2CC[C@@](O)(COC)C(C)(C)C2)cn1`, `COc1ccc(-c2noc(CCC(=O)N3CCOCC3(C)C)n2)cc1` is higher in cytotoxicity at 70.5 h: -18.6% for the first, -3.78% for the second.

Going from `CC(=O)c1c(C)nn(CC(=O)Nc2ccc(F)cc2)c1C` to `Cc1[nH]c2c(C)ccc(C)c2c1CC(=O)NCCCNc1cccnc1`, the cytotoxicity at 70.5 h falls from 30% to -9.64%.

Compared with `O=C1CCC(c2nc(C3CCN(C(=O)Cc4cccs4)CC3)no2)N1` (stereo unspecified), `O=C(Cc1cnccn1)N1CCC(c2nccn2CC2CC2)CC1` is higher in cytotoxicity at 70.5 h: -6.58% for the first, 31.6% for the second.

First: CC(C)OCCC(=O)NCCC(=O)N1CCN(c2ccccn2)CC1
Second: CC(=O)N(C)c1nc(CN2CCN(c3nccs3)CC2)cs1
The cytotoxicity at 70.5 h of the first is higher: -3.84% for the first, -5.68% for the second.

Compared with `CS(=O)(=O)N1CC[C@]2(C[C@H](Oc3ccccn3)CO2)C1`, `CS(=O)(=O)N1CCC2(CCCN(Cc3ccccn3)C2)C1` (stereo unspecified) is higher in cytotoxicity at 70.5 h: -7.19% for the first, 9.19% for the second.

First: O=c1[nH]c2csnc2c(=O)n1Cc1ccc(Br)cc1
Second: COc1cccc(CC(=O)N2CCCC2c2nc(C)c(F)c(O)n2)c1 (stereo unspecified)
The cytotoxicity at 70.5 h of the first is lower: -10.2% for the first, -1.47% for the second.

Compared with `COc1cc(C2Nc3cc(Cl)ccc3C3=NCCN32)cc(OC)c1OC` (stereo unspecified), `Cc1nc(C)n(CC2CCCN2c2ccnc(-c3ccccc3)n2)n1` (stereo unspecified) is lower in cytotoxicity at 70.5 h: 13.6% for the first, -6.3% for the second.

Compared with `CCNC(=O)N1CC[C@H]2CC(=O)N(CCN3CCNC3=O)CC[C@H]2C1`, `O=C1CCCN1CCC1CCN(C2CCCNC2)CC1` (stereo unspecified) is higher in cytotoxicity at 70.5 h: -3.51% for the first, -1.85% for the second.

Going from `O=C(CNc1ccccc1S(=O)(=O)C(F)F)NCc1ccco1` to `CC(O)CNc1c(NCc2ccco2)c(=O)c1=O` (stereo unspecified), the cytotoxicity at 70.5 h falls from -5.76% to -9.21%.

Going from `O=C(c1ccncc1)N1CCc2ncnc(C3CCOC3)c2CC1` (stereo unspecified) to `Cc1ccc(C(=O)N2CCC(c3noc(-c4cccnc4)n3)CC2)cn1`, the cytotoxicity at 70.5 h rises from -10.1% to -3.32%.

Compared with `CC(C)CCN1C[C@H]2C[C@H](C(=O)NCC(C)C)[C@@H](C1)O2`, `CCN1C[C@H]2C[C@H](C(=O)Nc3ccccc3)[C@@H](C1)O2` is higher in cytotoxicity at 70.5 h: -2.84% for the first, 16.4% for the second.

Compared with `COc1ccc(C(=O)N2CC[C@@H]3[C@H](CC2)N(C)CCS3(=O)=O)cc1`, `CN(C)C(=O)C1CCC2(CCN(C(=O)Nc3cccc(F)c3)CC2)O1` (stereo unspecified) is higher in cytotoxicity at 70.5 h: -7.15% for the first, -5.9% for the second.

Going from `O=C(O)C1c2nc[nH]c2CCN1Cc1cc(-c2ccccc2)no1` (stereo unspecified) to `CC(C)CN1CCc2[nH]cnc2C12CCN(C(=O)c1cccnc1)CC2`, the cytotoxicity at 70.5 h rises from -4.98% to 12.4%.

Going from `Cn1c(C(F)(F)F)nn(CCNC(=O)CCc2ccccc2)c1=O` to `Cc1cc(C(F)(F)F)nc(CNC(=O)CCn2cccn2)n1`, the cytotoxicity at 70.5 h falls from 22.1% to -6.34%.

Compared with `CN(C)C(=O)c1cnc2n1CCN(Cc1ccsc1)C2`, `CCNC(=O)NC[C@H]1COCc2nc3cc(OC)ccc3n21` is lower in cytotoxicity at 70.5 h: 2.92% for the first, -10.9% for the second.

Going from `Cc1cc(C)nc(N(C)CCn2ccnc2C)n1` to `Cc1nc(C(C)(C)NC(=O)Nc2ccncc2)no1`, the cytotoxicity at 70.5 h rises from -2.15% to -0.296%.

Compared with `CCC(CNC(=O)NCc1cc[nH]n1)N1CCCC1` (stereo unspecified), `CCN1CCC(NC(=O)CN2CCCCC2Cn2cncn2)CC1` (stereo unspecified) is higher in cytotoxicity at 70.5 h: -4.31% for the first, 0.615% for the second.

Going from `COCCN(CCN(C)C)C(=O)NC1CC1` to `CC(C)NC1CCc2c(ccc(=O)n2CC2CC2)C1` (stereo unspecified), the cytotoxicity at 70.5 h rises from -2.74% to 4.51%.

— ChEMBL document CHEMBL3507680, “University of Dundee, Gates Library screen for HepG2 cell viability”
